Series [1] addresses T1, Alpha glucosidase (Homo sapiens, UniProt O43451+P10253+P14410+Q2M2H8). The experiment in a line: Inhibition of human alpha-glucosidase expressed in Saccharomyces cerevisiae using p-nitrophenyl-alpha-D-glucopyranoside as substrate after 15 mins.
For series [2], the target named is T1, Alpha glucosidase. Briefly: Non-competitive inhibition of human alpha-glucosidase expressed in Saccharomyces cerevisiae using p-nitrophenyl-alpha-D-glucopyranoside as substrate after 15 mins by Lineweaver-Burk plot analysis.
Series [3] has as its system A549. Briefly: Cytotoxicity against human A549 cells at 10 uM by SRB assay. Format: functional, cell-based. On the technique in general: Sulforhodamine B stains cellular protein and so reports cell mass.
Series [4] relates to HeLa. Briefly: Cytotoxicity against human HeLa cells at 10 uM by SRB assay. Format: functional, cell-based.
Series [5] deals with HepG2. Briefly: Cytotoxicity against human HepG2 cells at 10 uM by SRB assay. Format: functional, cell-based.
Series [6] is described as follows: Cytotoxicity against human Chang cells at 10 uM by SRB assay. It counts as cell-based.
Another series has as its system MDA-MB-435. Briefly: Cytotoxicity against human MDA-MB-435 cells. Format: functional, cell-based.
Series [7] can be described thus: Cytotoxicity against human Chang cells by SRB assay. Format: cell-based.
The subject of series [8] is HeLa. Briefly: Cytotoxicity against human HeLa cells after 3 days by hematoxylin-eosin staining-based assay. Format: functional. Particulars: 72 h, read-out: ID50 (the source's name).
Series [9] concerns HeLa. The experiment in a line: Cytotoxicity against human HeLa cells by SRB assay. It counts as functional, cell-based.
For series [10], the system named is A549. The experiment in a line: Cytotoxicity against human A549 cells by SRB assay. It counts as functional, cell-based.
In series [11] the test system is HepG2. The experiment in a line: Cytotoxicity against human HepG2 cells by SRB assay. It counts as functional, cell-based.
The subject of series [12] is HeLa. The experiment in a line: Cell cycle arrest in human HeLa cells assessed as accumulation of cells at G0/G1 phase at 1.25 uM after 36 hrs by flow cytometric analysis (reference value: 66.64%). Format: functional.
In series [13] the test system is HeLa. The experiment in a line: Cell cycle arrest in human HeLa cells assessed as accumulation of cells at G2/M phase at 1.25 uM after 36 hrs by flow cytometric analysis (reference value: 9.92%). Format: functional. On the technique in general: In flow cytometry, cells or beads pass a laser one at a time.
Series [14] relates to HeLa. Briefly: Cell cycle arrest in human HeLa cells assessed as accumulation of cells at S phase at 1.25 uM after 36 hrs by flow cytometric analysis (reference value: 23.44%). It counts as functional.
The subject of series [15] is HeLa. The experiment in a line: Cell cycle arrest in human HeLa cells assessed as accumulation of cells at G0/G1 phase at 2.5 uM after 36 hrs by flow cytometric analysis (reference value: 66.64%). Format: functional.
Series [16] has as its system HeLa. Briefly: Cell cycle arrest in human HeLa cells assessed as accumulation of cells at G2/M phase at 2.5 uM after 36 hrs by flow cytometric analysis (reference value: 9.92%). It counts as functional.
Series [17] relates to HeLa. The experiment in a line: Cell cycle arrest in human HeLa cells assessed as accumulation of cells at S phase at 2.5 uM after 36 hrs by flow cytometric analysis (reference value: 23.44%). It counts as functional.
Series [18] has as its system HeLa. The experiment in a line: Cell cycle arrest in human HeLa cells assessed as accumulation of cells at G0/G1 phase at 5 uM after 36 hrs by flow cytometric analysis (reference value: 66.64%). It counts as functional.
The test system of series [19] is HeLa. Briefly: Cell cycle arrest in human HeLa cells assessed as accumulation of cells at G2/M phase at 5 uM after 36 hrs by flow cytometric analysis (reference value: 9.92%). Format: functional.
Series [20] relates to HeLa. Briefly: Cell cycle arrest in human HeLa cells assessed as accumulation of cells at S phase at 5 uM after 36 hrs by flow cytometric analysis (reference value: 23.44%). Format: functional.
Series [21] concerns HeLa. Briefly: Cell cycle arrest in human HeLa cells assessed as accumulation of cells at G0/G1 phase at 10 uM after 36 hrs by flow cytometric analysis (reference value: 66.64%). It counts as functional.
Series [22] concerns HeLa. The experiment in a line: Cell cycle arrest in human HeLa cells assessed as accumulation of cells at G2/M phase at 10 uM after 36 hrs by flow cytometric analysis (reference value: 9.92%). It counts as functional.
For series [23], the system named is HeLa. Briefly: Cell cycle arrest in human HeLa cells assessed as accumulation of cells at S phase at 10 uM after 36 hrs by flow cytometric analysis (reference value: 23.44%). It counts as functional.

The term Ki denotes the equilibrium dissociation constant of an inhibitor or competing ligand from its target. A high value points to weaker binding. By CC50 is commonly meant the concentration at which the toxic effect on the cells reaches its halfway point.

≈ marks a conversion by molar mass, not a printed value. Calls of active or inactive are those of the source. The calls are words filed in the database; no cut-off is given here.

Regarding `COc1cc(-c2ccc(O)cc2)c(OC)c(OCCC(C)C)c1-c1ccc(O)cc1`, on Alpha glucosidase [1], the IC50 stood at 8.58 µM. On Alpha glucosidase [2], the Ki was determined as 3.45 µM. Besides, the result with A549 [3], in the series with HeLa [4] and with HepG2 [5] was inactive. The Activity entry in series [6] is reported as “Non-Toxic”.

As to `COc1cc(-c2ccc(O)cc2)c(OC)c(O)c1-c1ccc(O)c(O)c1`, the IC50 against Alpha glucosidase [1] was 11.3 µM; in the series on MDA-MB-435, below 20 µM. The result in the series with A549 [3], in the series with HeLa [4] and with HepG2 [5] was inactive. Moreover, the Activity result in series [6] is given as “Non-Toxic”.

As for `COc1cc(-c2ccc(O)cc2)c(OC)c(O)c1-c1ccc(O)cc1` [TERPHENYLLIN], the IC50 at Alpha glucosidase [1] was found to be 4.79 µM; with HeLa [8] it was 10 µg/mL (≈ 29.6 µM); in the series on HeLa [9], 15.1 µM. Further, it took 6.95 µM to reach half-maximal cytotoxicity in series [7] (CC50). In addition, the Ki at Alpha glucosidase [2] turned out to be 1.5 µM. Further, the result with A549 [3] and in the series with HepG2 [5] was inactive.

For `COc1cc(-c2ccc(O)cc2)c(OC)c(O)c1-c1ccc(OCC=C(C)C)cc1`, the IC50 on Alpha glucosidase [1] worked out at 17.5 µM; with A549 [10] it was 0.31 µM; with HeLa [9], 3.18 µM; in the series with HepG2 [11], 0.46 µM. Further, the midpoint of cytotoxicity in series [7], the CC50, lay at 0.31 µM. Besides, the Activity was found to be 49.83% in the series on HeLa [12]; 10.74% in the series on HeLa [13]; 39.42% in the series on HeLa [14]; 43.71% with HeLa [15]; 10.54% with HeLa [16]; 45.75% in the series on HeLa [17]. Also, the Activity with HeLa [18] is 42.98%; in the series with HeLa [19], 4.33%; with HeLa [20], 52.69%; with HeLa [21], 42.24%; in the series with HeLa [22], 0.55%; in the series on HeLa [23], 57.2%.

As for `COc1cc(-c2ccc(O)c(O)c2)c(OC)c(O)c1-c1ccc(O)c(O)c1`, the IC50 against Alpha glucosidase [1] was 14 µM; in the series with MDA-MB-435 it was below 20 µM. The result in the series on A549 [3], with HeLa [4] and with HepG2 [5] was inactive. In addition, the Activity entry in [6] is “Non-Toxic”.

The values are drawn from ChEMBL document CHEMBL4196001, “Design, semisynthesis, α-glucosidase inhibitory, cytotoxic, and antibacterial activities of p-terphenyl derivatives” (Eur J Med Chem, 2018).
